# Experiments:
# Assay type in all cases: cell-based
# [1] = system: healthy human neonatal fibroblasts; test: Spheroid culture of healthy human neonatal fibroblasts in coated 6-well flat-bottom vessel, microscope observation; conditions: PS 6-well flat-bottom vessel coated with 0.125% solution; day 2 to day 20; uncoated control adhered and grew 2D
# Procedure: (§1) 2 mL of an aqueous solution of the polypeptide represented by formula (1) (0.125%) (cell culture supplement) was added to a commercial polystyrene-made 6-well flat-bottom culture vessel (CellBIND, Corning) and allowed to stand at 4° C. for 24 hours.
# Thereafter, the excess cell culture supplement was removed, and the remaining solution was dried in a dryer at 37° C. for 96 hours to complete coating treatment with the cell culture supplement. Healthy human neonatal fibroblasts (ATCC PCS-201-010, primary dermal fibroblasts, neonatal, referred to as “fibroblasts” below) were maintained and cultured in a serum-free medium (Promo Cell; fibroblast basal medium, basic-FGF 5 ng/mb and insulin 2.5 μg/mL). The fibroblasts floating in 2 mL of the medium were seeded in the culture vessel coated with the cell culture supplement at 2×10^6 cells/well and cultured at 37° C. under 5% CO2 conditions. For a control, fibroblasts were seeded in a culture vessel of the same type with no coating applied with the cell culture supplement (2×10^6 cells/well). Observation was performed with a microscope on day 2 and day 20 after the start of culture to capture images of spheroid formation (FIG. 5).
# [2] = system: healthy human neonatal fibroblasts; test: Real-time PCR of undifferentiated stem cell and three germ layer marker genes in neonatal fibroblast spheroids (96-well round-bottom); conditions: day 20 of 3D spheroid culture, coated 96-well round-bottom; 2D control without supplement day 0 = 1.0; ΔΔCt
# Procedure: (§2) To observe the spheroid formation and stem cell induction in healthy human neonatal fibroblasts over time, culture was performed by using a 96-well round-bottom culture vessel. An aqueous solution of the polypeptide represented by formula (1) (0.125%) (cell culture supplement) was added to a commercial polystyrene-made 96-well round-bottom culture vessel (Nunclon Delta 96U Bottom, Thermo Fisher Scientific) at 100 μL/well and allowed to stand at 4° C. for 24 hours. Thereafter, the excess cell culture supplement was removed, and the remaining solution was dried in a dryer at 37° C. for 96 hours to complete coating treatment with the cell culture supplement. Fibroblasts were maintained and cultured in a serum-free medium (Promo Cell; fibroblast basal medium, basic-FGF 5 ng/ml and insulin 2.5 μg/mL). The fibroblasts floating in the medium were seeded in the culture vessel coated with the cell culture supplement at 4×10^4 cells/well/100 μL and cultured at 37° C. under 5% CO2 conditions.
# To investigate the expression mechanism of the undifferentiated stem cell marker genes found in Example 1 over time, real-time PCR analysis was performed by using the following three transcription factors: SOX2 (sex-determining region Y-box 2), OCT4 (octamer binding transcription factor 4), and NANOG (homeodomain transcription factor), and a TaqMan gene expression assay probe (B-actin) as an endogenous control gene. In the expression analysis, relative quantification was performed according to the ΔΔCt method (Delta Delta Ct method) (FIG. 8).
# To determine whether stem cells induced from fibroblasts have a differentiation-inducing ability, analysis was conducted on the expression of genes associated with the three germ layers that indicate the early stages of differentiation. Fibroblasts were cultured in the same type of a 96-well culture vessel treated with the cell culture supplement as above according to the same method. Real-time PCR analysis was performed by using the following expression detection probes for the genes associated with differentiation into the three germ layers: SOX17 (sex-determining region Y-box 17; endoderm), HAND1 (Heart-and neural crest derivatives-expressed protein-1; mesoderm), and MAP2 (microtubule associated protein 2: ectoderm), and a TaqMan gene expression assay probe (ß-actin) as the endogenous control gene. In the expression analysis, relative quantification was performed according to the ΔΔCt method (Delta Delta Ct method) (FIG. 9).
# [3] = system: healthy human neonatal fibroblasts; test: Spheroid culture of healthy human neonatal fibroblasts in coated 96-well round-bottom vessel, microscope observation; conditions: PS 96-well round-bottom vessel coated with 0.125% solution; 4×10^4 cells/well
# Procedure: as §2
# [4] = system: healthy human neonatal fibroblasts; test: Real-time PCR of undifferentiated stem cell marker genes in neonatal fibroblast spheroids (6-well flat-bottom); conditions: day 20 of 3D spheroid culture, coated 6-well flat-bottom; control without supplement = 1.0; ΔΔCt, β-actin
# Procedure: as §1
# Thereafter, the excess cell culture supplement was removed, and the remaining solution was dried in a dryer at 37° C. for 96 hours to complete coating treatment with the cell culture supplement. Healthy human neonatal fibroblasts (ATCC PCS-201-010, primary dermal fibroblasts, neonatal, referred to as “fibroblasts” below) were maintained and cultured in a serum-free medium (Promo Cell; fibroblast basal medium, basic-FGF 5 ng/mb and insulin 2.5 μg/mL). The fibroblasts floating in 2 mL of the medium were seeded in the culture vessel coated with the cell culture supplement at 2×10^6 cells/well and cultured at 37° C. under 5% CO2 conditions. For a control, fibroblasts were seeded in a culture vessel of the same type with no coating applied with the cell culture supplement (2×10^6 cells/well). Observation was performed with a microscope on day 2 and day 20 after the start of culture to capture images of spheroid formation (FIG. 5). […]
# Specifically, a NucleoZOL reagent (Macherey-Nagel) was added to each type of cells, and total-RNA was extracted according to the protocol recommended by the reagent manufacturer and used as template RNA for detecting undifferentiated stem cell markers. For real-time PCR analysis, PCR probes from QuantiFast Probe RT-PCR Kits (QTAGEN; No. 204454) and TagMan Gene Expression Assay Probe (Thermo Fisher Scientific) were used. […] In the gene expression analysis, relative quantification was performed according to the ΔΔCt method (Delta Delta Ct method). The results of analysis according to the ΔΔCt method show the amount of a gene expressed by control cells under the conditions of “no cell culture supplement, flat-bottom 2D growth, day 0” as “1.0” in relative terms, and the increase rate of the expression level on day 20 of spheroid proliferation was determined by comparison (FIG. 6).
substance,measurement,setting,value
(Pro-Hyp-Gly)n [cell culture supplement],spheroid formation,[1],formed spheroids
same,HAND1 (mesoderm) gene expression level (increase vs control),[2],4.6 fold
same,MAP2 (ectoderm) gene expression level (increase vs control),[2],24.2 fold
same,NANOG gene expression level (increase vs control),[2],35.4 fold
same,OCT4 gene expression level (increase vs control),[2],30.1 fold
same,SOX2 gene expression level (increase vs control),[2],144.0 fold
same,SOX17 (endoderm) gene expression level (increase vs control),[2],359.6 fold
same,spheroid formation,[3],formed a single spheroid
same,NANOG gene expression level (increase vs control),[4],9.1 fold
same,OCT4 gene expression level (increase vs control),[4],5.1 fold
same,SOX2 gene expression level (increase vs control),[4],34.4 fold

# Reference: patent US20240294881A1, “CELL CULTURE SUPPLEMENT FOR PRODUCING STEM CELLS, AND METHOD FOR PRODUCING STEM CELLS” (OPTICELL, INC, priority 2021, published 2024)
